Here are results for two molecules from PMC11987180 (Biology Direct, 2025).

The structures appear in SMILES notation.

In assay [1] the target is T1, human indolethylamine N-methyltransferase (hINMT) (Homo sapiens, UniProt O95050). In words: quinoline-based continuous fluorometric methylation assay. The format is biochemical.
Assay [2] has as its target T1, human indolethylamine N-methyltransferase (hINMT). In words: thermal shift assay. The format is binding.

T1 sequence (O95050 whole entry): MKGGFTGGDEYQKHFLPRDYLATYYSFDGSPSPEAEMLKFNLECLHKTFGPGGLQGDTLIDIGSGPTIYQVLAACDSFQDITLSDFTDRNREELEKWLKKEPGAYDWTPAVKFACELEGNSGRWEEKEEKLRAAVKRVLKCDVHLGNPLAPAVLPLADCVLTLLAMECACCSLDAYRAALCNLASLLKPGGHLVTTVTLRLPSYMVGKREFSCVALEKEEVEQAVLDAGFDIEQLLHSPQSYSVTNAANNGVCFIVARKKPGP

In assay [1], `CNS(=O)(=O)CCc1ccc2[nH]cc(C3CCN(C)CC3)c2c1` [Naratriptan] returned an IC50 of 188.5 ± 1.8 µM. Consider `C[S+](CC[C@H](N)C(=O)[O-])C[C@H]1O[C@@H](n2cnc3c(N)ncnc32)[C@H](O)[C@@H]1O` (some centres unmarked) [SAM], for which the Kd in assay [2] is 55.6 ± 2.6 µM.
